The values below come from patent US20200131669A1, “CYCLIC PEPTIDE COMPOUND HAVING HIGH MEMBRANE PERMEABILITY, AND LIBRARY CONTAINING SAME” (Chugai Seiyaku Kabushiki Kaisha, priority 2017, published 2020).

The structures appear in SMILES notation. Starred links: 1 amine or outer side, 2 acyl side, 3 side chain; linkers in the order of their positions; H or OH if unused. Positions of bridges follow the written chain, without caps; N, C: chain ends. Non-standard residues stand in square brackets, D forms with d. Residues, ends and D or L forms follow the SMILES beside them. ξ: configuration not given here. *: point of attachment. hPhe(3-Cl) = N[C@@H](CCc1cccc(Cl)c1)C(=O)O; hPhe(4-Cl) = N[C@@H](CCc1ccc(Cl)cc1)C(=O)O; X14 = O=C([C@H](CCc1ccccc1Cl)N[*:1])[*:2]; hhPhe = N[C@@H](CCCc1ccccc1)C(=O)O; NMeF = CN[C@@H](Cc1ccccc1)C(=O)O; NMeI = CC[C@H](C)[C@H](NC)C(=O)O; NMeL = CN[C@@H](CC(C)C)C(=O)O; NMeV = CN[C@H](C(=O)O)C(C)C; NMeA = CN[C@@H](C)C(=O)O; Piperidide = C1CCN(*)CC1; Bn = c1ccc(C*)cc1; ξS = NC(CO)C(=O)O; Sar = CNCC(=O)O; tBu = CC(C)(C)*

One data set is described as follows: Caco-2 membrane permeability, improved method as used in the following Examples (96-well, 20 to 24 h preincubation). Particulars: Caco-2, Caco-2. The format is in vitro ADME. An outline of the steps:
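Papp (cm/sec) was derived from LC/MS of basal samples collected 180 min after apical dosing in FaSSIF/HBSS pH 6.0 with 1% DMSO, against a basal HBSS pH 7.4 receiver containing 4% BSA. Three-week Caco-2 cultures were first preincubated with compound in DMEM+FaSSIF at 37 °C for 20–24 h.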
In general terms: Caco-2 cells form a polarised layer with tight junctions and transporters.
For `CC[C@H](C)[C@@H]1NC(=O)[C@H](Cc2ccccc2)N(C)C(=O)CN(C)C(=O)C[C@@H](C(=O)N2CCCCC2)NC(=O)[C@H](C(C)C)N(C)C(=O)[C@H](CCc2ccc(Cl)cc2)NC(=O)[C@H](CC(C)C)N(C)C(=O)[C@H](CC(C)C)N(C)C(=O)CN(C)C(=O)[C@H]([C@@H](C)O)NC(=O)[C@H](CC(C)C)N(C)C1=O` [pd362] ([Sar][NMeF]I[NMeL]T[Sar][NMeL][NMeL][hPhe(4-Cl)][NMeV]D-Piperidide; lactam N-11), the Papp A→B was 10 nm/s.
On the same count and under the same terms, as for `CC(C)C[C@H]1C(=O)N[C@@H](CCCc2ccccc2)C(=O)N(C)[C@@H](Cc2ccccc2)C(=O)N(C)[C@@H](C(C)C)C(=O)N[C@H](C(=O)N2CCCCC2)CC(=O)N[C@H](C)C(=O)N(C)[C@@H](Cc2ccccc2)C(=O)N[C@@H](C(C)C)C(=O)N(C)[C@@H](CC(C)C)C(=O)N[C@@H]([C@@H](C)O)C(=O)N(C)CC(=O)N1C` [pd364] ([dA][NMeF]V[NMeL]T[Sar][NMeL][hhPhe][NMeF][NMeV]D-Piperidide; lactam N-11), the figure is 10 nm/s.

Still in this data set, the particulars now being: human, Caco-2, Caco-2.
`CC(C)C[C@H]1C(=O)N[C@@H](COC(C)(C)C)C(=O)N(C)[C@@H](Cc2ccccc2)C(=O)N(C)[C@@H](C(C)C)C(=O)N[C@H](C(=O)N2CCCCC2)CC(=O)N[C@H](C(C)C)C(=O)N(C)[C@@H](C)C(=O)N[C@@H](CCc2ccccc2Cl)C(=O)N(C)[C@@H](CC(C)C)C(=O)N[C@@H]([C@@H](C)O)C(=O)N(C)CC(=O)N1C` [pd350] ([dV][NMeA][X14][NMeL]T[Sar][NMeL]S(tBu)[NMeF][NMeV]D-Piperidide; lactam N-11): the Papp A→B at 180 min was determined as 17 nm/s.
Still for that read-out and setting: as for `CC(C)C[C@@H]1NC(=O)[C@H](CC(C)C)N(C)C(=O)CN(C)C(=O)[C@H]([C@@H](C)O)NC(=O)[C@H](CC(C)C)N(C)C(=O)[C@H](CCc2ccccc2Cl)NC(=O)[C@H](C)N(C)C(=O)[C@@H](C(C)C)NC(=O)C[C@@H](C(=O)N2CCCCC2)NC(=O)[C@H](C(C)C)N(C)C(=O)[C@H](Cc2ccccc2)N(C)C1=O` [pd351] ([dV][NMeA][X14][NMeL]T[Sar][NMeL]L[NMeF][NMeV]D-Piperidide; lactam N-11), the figure is 19 nm/s; as for `CC[C@H](C)[C@H]1C(=O)N[C@@H]([C@@H](C)O)C(=O)N(C)CC(=O)N(C)[C@@H](CC(C)C)C(=O)N[C@H](C(=O)N2CCCCC2)CC(=O)N(C)[C@@H](C)C(=O)N[C@@H](CCc2ccccc2Cl)C(=O)N(C)[C@@H](CC(C)C)C(=O)N(C)[C@@H](CC(C)C)C(=O)N[C@@H](C)C(=O)N(C)[C@@H](Cc2ccccc2)C(=O)N1C` [pd352] ([NMeA][X14][NMeL][NMeL]A[NMeF][NMeI]T[Sar][NMeL]D-Piperidide; lactam N-11), 14 nm/s.
Same read-out and setting: as for `CC(C)C[C@H]1C(=O)N[C@H](C(=O)N2CCCCC2)CC(=O)N(C)[C@@H](C)C(=O)N[C@@H](CCc2ccccc2Cl)C(=O)N(C)[C@@H](CC(C)C)C(=O)N(C)[C@@H](CC(C)C)C(=O)N[C@@H](C)C(=O)N(C)[C@@H](Cc2ccccc2)C(=O)N(C)[C@@H](C(C)C)C(=O)N[C@@H]([C@@H](C)O)C(=O)N(C)CC(=O)N1C` [pd353] ([NMeA][X14][NMeL][NMeL]A[NMeF][NMeV]T[Sar][NMeL]D-Piperidide; lactam N-11), the figure is 14 nm/s; as for `CC[C@H](C)[C@@H]1NC(=O)[C@H](Cc2ccccc2)N(C)C(=O)CN(C)C(=O)C[C@@H](C(=O)N2CCCCC2)NC(=O)[C@H](C(C)C)N(C)C(=O)[C@H](CCc2ccccc2Cl)NC(=O)[C@H](CC(C)C)N(C)C(=O)[C@H](CC(C)C)N(C)C(=O)CN(C)C(=O)[C@H]([C@@H](C)O)NC(=O)[C@H](CC(C)C)N(C)C1=O` [pd354] ([Sar][NMeF]I[NMeL]T[Sar][NMeL][NMeL][X14][NMeV]D-Piperidide; lactam N-11), 15 nm/s.
The same measure, in the same setting: as for `CC(C)C[C@@H]1NC(=O)[C@H](CC(C)C)N(C)C(=O)CN(C)C(=O)[C@H]([C@@H](C)O)NC(=O)[C@H](CC(C)C)N(C)C(=O)[C@H](CCc2cccc(Cl)c2)NC(=O)[C@H](C)N(C)C(=O)[C@@H](C(C)C)NC(=O)C[C@@H](C(=O)N2CCCCC2)NC(=O)[C@H](C(C)C)N(C)C(=O)[C@H](Cc2ccccc2)N(C)C1=O` [pd355] ([dV][NMeA][hPhe(3-Cl)][NMeL]T[Sar][NMeL]L[NMeF][NMeV]D-Piperidide; lactam N-11), the figure is 23 nm/s; as for `CC(C)C[C@H]1C(=O)N[C@H](C(=O)N2CCCCC2)CC(=O)N(C)[C@@H](C)C(=O)N[C@@H](CCc2cccc(Cl)c2)C(=O)N(C)[C@@H](CC(C)C)C(=O)N(C)[C@@H](CC(C)C)C(=O)N[C@@H](C)C(=O)N(C)[C@@H](Cc2ccccc2)C(=O)N(C)[C@@H](C(C)C)C(=O)N[C@@H]([C@@H](C)O)C(=O)N(C)CC(=O)N1C` [pd356] ([NMeA][hPhe(3-Cl)][NMeL][NMeL]A[NMeF][NMeV]T[Sar][NMeL]D-Piperidide; lactam N-11), 12 nm/s.
For `CC(C)C[C@H]1C(=O)N[C@@H](CCc2cccc(Cl)c2)C(=O)N(C)[C@@H](CC(C)C)C(=O)N[C@@H]([C@@H](C)O)C(=O)N(C)CC(=O)N(C)[C@@H](Cc2ccccc2)C(=O)N(C)[C@@H](CC(C)C)C(=O)N[C@@H](COC(C)(C)C)C(=O)N(C)[C@@H](C(C)C)C(=O)N[C@H](C(=O)N2CCCCC2)CC(=O)N(C)CC(=O)N1C` [pd357] ([Sar][NMeL][hPhe(3-Cl)][NMeL]T[Sar][NMeF][NMeL]S(tBu)[NMeV]D-Piperidide; lactam N-11), the Papp A→B at 180 min came out at 13 nm/s.
For the molecule `CC(C)C[C@@H]1NC(=O)[C@H](CC(C)C)N(C)C(=O)CN(C)C(=O)[C@H]([C@@H](C)O)NC(=O)[C@H](CC(C)C)N(C)C(=O)[C@H](CCc2ccc(Cl)cc2)NC(=O)[C@H](C)N(C)C(=O)[C@@H](C(C)C)NC(=O)C[C@@H](C(=O)N2CCCCC2)NC(=O)[C@H](C(C)C)N(C)C(=O)[C@H](Cc2ccccc2)N(C)C1=O` [pd360] ([dV][NMeA][hPhe(4-Cl)][NMeL]T[Sar][NMeL]L[NMeF][NMeV]D-Piperidide; lactam N-11), the Papp A→B at 180 min came out at 16 nm/s.
Same read-out and setting: as for `CC(C)C[C@H]1C(=O)N[C@H](C(=O)N2CCCCC2)CC(=O)N(C)[C@@H](C)C(=O)N[C@@H](CCCc2ccccc2)C(=O)N(C)[C@@H](CC(C)C)C(=O)N(C)[C@@H](Cc2ccccc2)C(=O)N[C@@H](C)C(=O)N(C)[C@@H](Cc2ccccc2)C(=O)N(C)[C@@H](C(C)C)C(=O)N[C@@H]([C@@H](C)O)C(=O)N(C)CC(=O)N1C` [pd365] ([NMeA][hhPhe][NMeL][NMeF]A[NMeF][NMeV]T[Sar][NMeL]D-Piperidide; lactam N-11), the figure is 15 nm/s.
Still for that read-out and setting: as for `CC[C@H](C)[C@H]1C(=O)N[C@H](C(=O)N2CCCCC2)CC(=O)N(C)CC(=O)N(C)[C@@H](Cc2ccccc2)C(=O)N[C@@H](CCCc2ccccc2)C(=O)N(C)[C@@H](CC(C)C)C(=O)N[C@@H]([C@@H](C)O)C(=O)N(C)CC(=O)N(C)[C@@H](Cc2ccccc2)C(=O)N(C)[C@@H](CC(C)C)C(=O)N[C@@H](COC(C)(C)C)C(=O)N1C` [pd366] ([Sar][NMeF][hhPhe][NMeL]T[Sar][NMeF][NMeL]S(tBu)[NMeI]D-Piperidide; lactam N-11), the figure is 18 nm/s.
On the same count and under the same terms, as for `CC[C@H](C)[C@@H]1NC(=O)[C@H](Cc2ccccc2)N(C)C(=O)CN(C)C(=O)C[C@@H](C(=O)N2CCCCC2)NC(=O)[C@H](C)N(C)C(=O)[C@H](CCCc2ccccc2)NC(=O)[C@H](CC(C)C)N(C)C(=O)[C@H](Cc2ccccc2)N(C)C(=O)CN(C)C(=O)[C@H]([C@@H](C)O)NC(=O)[C@H](CC(C)C)N(C)C1=O` [pd367] ([Sar][NMeF]I[NMeL]T[Sar][NMeF][NMeL][hhPhe][NMeA]D-Piperidide; lactam N-11), the figure is 15 nm/s; as for `CC(C)C[C@H]1C(=O)N[C@@H]([C@@H](C)O)C(=O)N(C)CC(=O)N(C)[C@@H](Cc2ccccc2)C(=O)N(C)[C@@H](CC(C)C)C(=O)N[C@@H](COC(C)(C)C)C(=O)N(C)[C@@H](CC(C)C)C(=O)N[C@H](C(=O)N2CCCCC2)CC(=O)N(C)CC(=O)N(C)[C@@H](Cc2ccccc2)C(=O)N[C@@H](COCc2ccccc2)C(=O)N1C` [pd369] ([Sar][NMeF]S(Bn)[NMeL]T[Sar][NMeF][NMeL]S(tBu)[NMeL]D-Piperidide; lactam N-11), 30 nm/s.
Molecule `CC[C@H](C)[C@@H]1NC(=O)[C@H](Cc2ccccc2)N(C)C(=O)CN(C)C(=O)C[C@@H](C(=O)N2CCCCC2)NC(=O)[C@H]([C@@H](C)CC)N(C)C(=O)C(COCc2ccccc2)NC(=O)[C@H](CC(C)C)N(C)C(=O)[C@H](Cc2ccccc2)N(C)C(=O)CN(C)C(=O)[C@H]([C@@H](C)O)NC(=O)[C@H](CC(C)C)N(C)C1=O` (stereo partly drawn) [pd370] ([Sar][NMeF]I[NMeL]T[Sar][NMeF][NMeL][ξS](Bn)[NMeI]D-Piperidide; lactam N-11) displayed a Papp A→B at 180 min of 25 nm/s.

The same data set, now with this note: human; Papp, Caco-2 membrane permeability, improved method; read-out: Caco-2.
In the case of `CC(C)C[C@@H]1NC(=O)[C@H](C)N(C)C(=O)C[C@@H](C(=O)N2CCCCC2)NC(=O)[C@H](CC(C)C)N(C)C(=O)CN(C)C(=O)[C@H]([C@@H](C)O)NC(=O)[C@H](C)N(C)C(=O)[C@H](Cc2ccccc2)N(C)C(=O)[C@H](COCc2ccccc2)NC(=O)[C@H](Cc2ccccc2)N(C)C(=O)[C@H](CC(C)C)N(C)C1=O` [pd368] ([NMeA]L[NMeL][NMeF]S(Bn)[NMeF][NMeA]T[Sar][NMeL]D-Piperidide; lactam N-11), the Papp A→B at 180 min worked out at 20 nm/s.
